One test deals with Endothelial lipase (EL) (Homo sapiens (Human), UniProt Q9Y5X9). Briefly: EL assay: endothelial lipase activity with fluorescent substrate A10070 in DMPG vesicles. It is filed as biochemical. Put shortly: (§1)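 Vesicles prepared: A10070 dried with DMPG, resuspended in HEPES pH 8.0/NaCl/EDTA, sonicated on ice. Enzyme incubated with compound 30 min at 37° C. Reaction started with 1:10 diluted vesicles. Fluorescence (490/530 nm) followed 60 min; slope from 300–900 secs gives rate.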
Chain of Endothelial lipase (EL) (Q9Y5X9 21-500): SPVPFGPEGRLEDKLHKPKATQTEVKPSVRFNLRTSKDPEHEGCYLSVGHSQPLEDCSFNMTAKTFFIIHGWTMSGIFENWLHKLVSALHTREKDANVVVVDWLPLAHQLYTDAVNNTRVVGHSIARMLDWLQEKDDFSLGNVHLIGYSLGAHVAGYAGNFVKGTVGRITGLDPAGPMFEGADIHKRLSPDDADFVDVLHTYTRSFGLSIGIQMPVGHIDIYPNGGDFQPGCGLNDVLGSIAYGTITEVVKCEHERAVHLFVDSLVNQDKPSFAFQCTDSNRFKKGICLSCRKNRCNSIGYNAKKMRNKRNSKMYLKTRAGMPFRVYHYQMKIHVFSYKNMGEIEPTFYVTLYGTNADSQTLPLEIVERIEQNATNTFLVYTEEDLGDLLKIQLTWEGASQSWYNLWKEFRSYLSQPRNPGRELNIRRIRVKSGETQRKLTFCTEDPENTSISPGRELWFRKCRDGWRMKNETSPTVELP

The target in another test is hepatic lipase (HL) (Homo sapiens (Human), UniProt P11150). Briefly: HL assay: hepatic lipase activity with fluorescent substrate A10070 in DMPG vesicles. It is filed as biochemical. The method in brief:
as §1

For orientation: IC50 means the point on the concentration scale where inhibition reaches its midpoint.

Chain of hepatic lipase (HL) (P11150 23-499, species assumed): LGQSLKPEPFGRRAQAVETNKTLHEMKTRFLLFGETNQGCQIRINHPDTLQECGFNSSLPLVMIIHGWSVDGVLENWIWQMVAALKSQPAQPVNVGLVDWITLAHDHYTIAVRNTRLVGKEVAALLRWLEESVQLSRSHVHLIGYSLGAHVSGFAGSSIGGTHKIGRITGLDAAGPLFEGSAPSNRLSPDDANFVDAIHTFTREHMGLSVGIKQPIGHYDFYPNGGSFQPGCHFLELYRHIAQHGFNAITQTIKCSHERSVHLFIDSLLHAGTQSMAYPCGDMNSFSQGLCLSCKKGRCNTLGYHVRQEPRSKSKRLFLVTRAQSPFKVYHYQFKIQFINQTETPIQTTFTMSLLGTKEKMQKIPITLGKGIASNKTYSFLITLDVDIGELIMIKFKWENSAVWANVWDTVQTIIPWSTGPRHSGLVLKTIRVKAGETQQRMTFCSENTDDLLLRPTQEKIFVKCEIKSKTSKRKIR

As to `COCCS(=O)(=O)C(C(=O)NCCS(N)(=O)=O)c1nc2ccc(-c3ccc(F)nc3)cc2s1` (stereo not drawn) [Example B281, 2-[6-(6-fluoropyridin-3-yl)-1,3-benzothiazol-2-yl]-2-(2-methoxyethane-sulfonyl)-N-(2-sulfamoylethyl)acetamide], the IC50 on Endothelial lipase (EL) was 17.9 nM; on hepatic lipase (HL) it was 110 nM.
For the compound `COCCNC(=O)c1ccc(-c2ccc3nc(C(C(=O)NCCS(N)(=O)=O)S(=O)(=O)Cc4ccc(OC(F)(F)F)cc4)sc3c2)cc1` (stereo not drawn) [Example B282, N-(2-methoxyethyl)-4-(2-{[(2-sulfamoylethyl)car-bamoyl][4-(trifluoromethoxy)phen-yl]methanesulfonylmethyl}-1,3-benzothiazol-6-yl)ben-zamide], the IC50 is 2.6 nM on Endothelial lipase (EL) and 306 nM against hepatic lipase (HL).
Consider `NS(=O)(=O)CCNC(=O)C(c1nc2ccc(-c3ccc(C(=O)N4CCOCC4)cc3)cc2s1)S(=O)(=O)CC1CC1` (stereo not drawn) [Example B283, 2-cyclopropylmethane-sulfonyl-2-{6-[4-(morpholine-4-carbonyl)phenyl]-1,3-benzothiazol-2-yl}-N-(2-sulfamoylethyl)acetamide], for which the IC50 on Endothelial lipase (EL) came out at 53.8 nM; at hepatic lipase (HL) it was 365 nM.
In the case of `NS(=O)(=O)CCNC(=O)C(c1nc2ccc(-c3ccccc3)cc2s1)S(=O)(=O)CCC(F)(F)F` (stereo not drawn) [Example B284, 2-(6-phenyl-1,3-benzothiazol-2-yl)-N-(2-sulfamoylethyl)-2-(3,3,3-trifluoropropanesulfonyl)a-cetamide], the IC50 at Endothelial lipase (EL) stood at 6.8 nM; against hepatic lipase (HL) it was 2.6 nM.
`COCc1ccc(-c2ccc3nc(C(C(=O)NCCS(N)(=O)=O)S(=O)(=O)Cc4ccc(OC(F)(F)F)cc4)sc3c2)cc1` (stereo not drawn) [Example B285, 2-{6-[4-(methoxymethyl)phenyl]-1,3-benzothiazol-2-yl}-N-(2-sulfamoylethyl)-2-{[4-(trifluoromethoxy)phen-yl]methanesulfonyl}a-cetamide]: the IC50 against Endothelial lipase (EL) came to 5.4 nM; against hepatic lipase (HL), 126 nM.
Consider `COCc1ccc(-c2ccc3nc(C(C(=O)NCCS(N)(=O)=O)S(=O)(=O)CC4CC4)sc3c2)cc1` (stereo not drawn) [Example B286, 2-cyclopropylmethane-sulfonyl-2-{6-[4-(methoxymethyl)phenyl]-1,3-benzothiazol-2-yl}-N-(2-sulfamoylethyl)a-cetamide], for which the IC50 against Endothelial lipase (EL) was 3.9 nM; against hepatic lipase (HL), 55.5 nM.
In the same order, the values of `CC(=O)Nc1ccc(-c2ccc3nc(C(C(=O)NCCS(N)(=O)=O)S(=O)(=O)Cc4ccc(C(F)(F)F)cc4)sc3c2)cc1` (stereo not drawn) [Example B287, 2-[6-(4-acetamidophenyl)-1,3-benzothiazol-2-yl]-N-(2-sulfamoylethyl)-2-{[4-(trifluoromethyl)phen-yl]methanesulfonyl}a-cetamide] are 7 nM and 90 nM.
Take `COCCN(C)C(=O)c1ccc(-c2ccc3nc(C(C(=O)NCCS(N)(=O)=O)S(=O)(=O)Cc4ccc(C(F)(F)F)cc4)sc3c2)cc1` (stereo not drawn) [Example B288, N-(2-methoxyethyl)-N-methyl-4-(2-{[(2-sulfamoylethyl)carbamoyl][4-(trifluoromethyl)phen-yl]methanesulfonylmethyl}-1,3-benzothiazol-6-yl)ben-zamide]: the results for the IC50 against Endothelial lipase (EL) and against hepatic lipase (HL) were 0.8 nM and 124 nM, respectively.
Consider `COCCN(C)C(=O)c1ccc(-c2ccc3nc(C(C(=O)NCCS(N)(=O)=O)S(=O)(=O)Cc4ccc(OC(F)(F)F)cc4)sc3c2)cc1` (stereo not drawn) [Example B289, N-(2-methoxyethyl)-N-methyl-4-(2-{[(2-sulfamoyl-ethyl)carbamoyl][4-(trifluoromethoxy)phen-yl]methanesulfonyl-methyl}-1,3-benzothiazol-6-yl)benzamide], for which the IC50 at Endothelial lipase (EL) was 3.1 nM; on hepatic lipase (HL), 21.7 nM.
The matching figures for `COCCN(C)C(=O)c1ccc(-c2ccc3nc(C(C(=O)NCCS(N)(=O)=O)S(=O)(=O)CCC(F)(F)F)sc3c2)cc1` (stereo not drawn) [Example B290, N-(2-methoxyethyl)-N-methyl-4-(2-{[(2-sulfa-moylethyl)carbamoyl](3,3,3-trifluoropropane-sulfonyl)methyl}-1,3-benzothiazol-6-yl)ben-zamide]: 12.1 nM and 114 nM.
Consider `COCCN(C)C(=O)c1ccc(-c2ccc3nc(C(C(=O)NCCS(N)(=O)=O)S(=O)(=O)CC4CC4)sc3c2)cc1` (stereo not drawn) [Example B291, 4-(2-{cyclopropylmethane-sulfonyl[(2-sulfamoyl-ethyl)carbamoyl]methyl}-1,3-benzothiazol-6-yl)-N-(2-methoxyethyl)-N-methylbenzamide], for which the figures for the IC50 against Endothelial lipase (EL) and at hepatic lipase (HL) were 0.7 nM and 35.2 nM, respectively.
Turning to `COCCNC(=O)c1ccc(-c2ccc3nc(C(C(=O)NCCS(N)(=O)=O)S(=O)(=O)Cc4ccc(Cl)c(Cl)c4)sc3c2)cc1` (stereo not drawn) [Example B292, 4-{2-[(3,4-dichlorophen-yl)methanesulfonyl[(2-sulfa-moylethyl)carbamoyl]meth-yl]-1,3-benzothiazol-6-yl}-N-(2-methoxyethyl)ben-zamide], the IC50 was determined as 20.2 nM at Endothelial lipase (EL) and 112 nM against hepatic lipase (HL).
`NS(=O)(=O)CCNC(=O)C(c1nc2ccc(-c3ccc(C(=O)N4CCOCC4)cc3)cc2s1)S(=O)(=O)Cc1ccc(C(F)(F)F)cc1` (stereo not drawn) [Example B293, 2-{6-[4-(morpholine-4-carbonyl)phenyl]-1,3-benzothiazol-2-yl}-N-(2-sulfamoylethyl)-2-{[4-(trifluoromethyl)phen-yl]methanesulfonyl}a-cetamide]: the IC50 at Endothelial lipase (EL) came to 146 nM; against hepatic lipase (HL), 328 nM.
`COCCNC(=O)c1ccc(-c2ccc3nc(C(C(=O)NCCS(N)(=O)=O)S(=O)(=O)Cc4cc(Cl)cc(Cl)c4)sc3c2)cc1` (stereo not drawn) [Example B295, 4-{2-[(3,5-dichlorophen-yl)methanesulfonyl[(2-sulfa-moylethyl)carbamoyl]meth-yl]-1,3-benzothiazol-6-yl}-N-(2-methoxyethyl)ben-zamide]: the IC50 against Endothelial lipase (EL) worked out at 20.9 nM; at hepatic lipase (HL), 140 nM.
`NS(=O)(=O)CCNC(=O)C(c1nc2ccc(-c3ccc(C(=O)N4CCOCC4)cc3)cc2s1)S(=O)(=O)Cc1ccc(F)cc1` (stereo not drawn) [Example B296, 2-[(4-fluorophenyl)methanesulfonyl]-2-{6-[4-(morpholine-4-carbon-yl)phenyl]-1,3-benzothiazol-2-yl}-N-(2-sulfamoyleth-yl)acetamide]: the IC50 at Endothelial lipase (EL) turned out to be 2.9 nM; at hepatic lipase (HL), 267 nM.
In the same order, the values of `NS(=O)(=O)CCNC(=O)C(c1nc2ccc(-c3ccc(C(=O)N4CCOCC4)cc3)cc2s1)S(=O)(=O)Cc1ccc(Cl)c(Cl)c1` (stereo not drawn) [Example B297, 2-[(3,4-dichlorophen-yl)methanesulfonyl]-2-{6-[4-(morpholine-4-carbon-yl)phenyl]-1,3-benzothiazol-2-yl}-N-(2-sulfamoylethyl)a-cetamide] are 5.3 nM and 556 nM.
In the same order, the values of `COC1CN(C(=O)c2ccc(-c3ccc4nc(C(C(=O)NCCS(N)(=O)=O)S(=O)(=O)Cc5ccc(C(F)(F)F)cc5)sc4c3)cc2)C1` (stereo not drawn) [Example B299] are 5.6 nM and 74.2 nM.
Take `COC1CN(C(=O)c2ccc(-c3ccc4nc(C(C(=O)NCCS(N)(=O)=O)S(=O)(=O)Cc5ccc(OC(F)(F)F)cc5)sc4c3)cc2)C1` (stereo not drawn) [Example B300, 2-{6-[4-(3-methoxy-azetidine-1-carbonyl)phen-yl]-1,3-benzothiazol-2-yl}-N-(2-sulfamoyl-ethyl)-2-{[4-(trifluoro-methoxy)phenyl]methane-sulfonyl}acetamide]: the IC50 amounted to 5.5 nM against Endothelial lipase (EL) and 85.1 nM on hepatic lipase (HL).

The record behind these values is patent US8987314B2, “Amide, urea or sulfone amide linked benzothiazole inhibitors of endothelial lipase” (Bristol-Myers Squibb Company, priority 2012, dated 2015).
